Assay results published in ChEMBL document CHEMBL3826966, “A chromatography-free isolation of rohitukine from leaves of Dysoxylum binectariferum: Evaluation for in vitro cytotoxicity, Cdk inhibition and physicochemical properties” (Bioorg Med Chem Lett, 2016).

What was measured:
[1] = target: Protein kinase C zeta type (Homo sapiens) (UniProt Q05513); test: Inhibition of human PKCzeta (2 to 592 residues) assessed as remaining enzyme activity at 50 uM after 30 mins by 33P-ATP filter-binding assay
[2] = target: MAP kinase-interacting serine/threonine-protein kinase 1 (Homo sapiens) (UniProt Q9BUB5); test: Inhibition of human MNK1 (2 to 424 residues) assessed as remaining enzyme activity at 50 uM after 30 mins by 33P-ATP filter-binding assay
[3] = target: Calcium/calmodulin-dependent protein kinase type 1 (Homo sapiens) (UniProt Q14012); test: Inhibition of human CAMK1 (1 to 541 residues) assessed as remaining enzyme activity at 50 uM after 30 mins by 33P-ATP filter-binding assay
Sequence of Calcium/calmodulin-dependent protein kinase type 1 (Homo sapiens) (Q14012 whole entry, looked up, the tested form may be a part): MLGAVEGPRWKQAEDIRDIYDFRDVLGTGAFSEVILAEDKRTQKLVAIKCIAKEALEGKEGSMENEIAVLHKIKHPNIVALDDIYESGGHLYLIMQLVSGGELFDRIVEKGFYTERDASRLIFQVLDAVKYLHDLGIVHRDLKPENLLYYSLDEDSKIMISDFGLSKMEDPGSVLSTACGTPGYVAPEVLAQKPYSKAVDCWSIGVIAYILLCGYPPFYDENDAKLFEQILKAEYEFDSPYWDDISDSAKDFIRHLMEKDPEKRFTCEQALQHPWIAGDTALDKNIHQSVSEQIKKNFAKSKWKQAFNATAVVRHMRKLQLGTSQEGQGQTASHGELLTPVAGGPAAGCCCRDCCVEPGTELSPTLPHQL

[4] = target: Serine/threonine-protein kinase Chk2 (Homo sapiens) (UniProt O96017); test: Inhibition of human CHK2 (5 to 543 residues) assessed as remaining enzyme activity at 50 uM after 30 mins by 33P-ATP filter-binding assay
Sequence of Serine/threonine-protein kinase Chk2 (Homo sapiens) (O96017 whole entry, the tested form may be a part): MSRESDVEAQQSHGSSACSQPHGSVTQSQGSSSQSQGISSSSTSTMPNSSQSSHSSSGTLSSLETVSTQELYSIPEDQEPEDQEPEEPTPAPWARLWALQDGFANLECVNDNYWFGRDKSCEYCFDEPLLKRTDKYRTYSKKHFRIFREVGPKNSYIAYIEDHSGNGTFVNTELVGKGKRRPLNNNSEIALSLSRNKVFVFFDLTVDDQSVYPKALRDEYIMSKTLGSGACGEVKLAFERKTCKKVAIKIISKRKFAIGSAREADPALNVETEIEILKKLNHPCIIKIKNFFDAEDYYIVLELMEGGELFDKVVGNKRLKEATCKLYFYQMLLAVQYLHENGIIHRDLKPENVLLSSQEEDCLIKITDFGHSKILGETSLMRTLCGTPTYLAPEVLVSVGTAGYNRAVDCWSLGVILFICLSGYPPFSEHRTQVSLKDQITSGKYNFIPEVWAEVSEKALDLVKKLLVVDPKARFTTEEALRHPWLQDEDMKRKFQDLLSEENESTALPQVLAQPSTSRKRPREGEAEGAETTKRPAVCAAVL

[5] = target: Serine/threonine-protein kinase PLK1 (Homo sapiens) (UniProt P53350); test: Inhibition of human PLK1 (1 to 603 residues) assessed as remaining enzyme activity at 50 uM after 30 mins by 33P-ATP filter-binding assay
[6] = target: Maternal embryonic leucine zipper kinase (Homo sapiens) (UniProt Q14680); test: Inhibition of human MELK (2 to 651 residues) assessed as remaining enzyme activity at 50 uM after 30 mins by 33P-ATP filter-binding assay
Sequence of Maternal embryonic leucine zipper kinase (Homo sapiens) (Q14680 whole entry, looked up, the tested form may be a part, canonical isoform): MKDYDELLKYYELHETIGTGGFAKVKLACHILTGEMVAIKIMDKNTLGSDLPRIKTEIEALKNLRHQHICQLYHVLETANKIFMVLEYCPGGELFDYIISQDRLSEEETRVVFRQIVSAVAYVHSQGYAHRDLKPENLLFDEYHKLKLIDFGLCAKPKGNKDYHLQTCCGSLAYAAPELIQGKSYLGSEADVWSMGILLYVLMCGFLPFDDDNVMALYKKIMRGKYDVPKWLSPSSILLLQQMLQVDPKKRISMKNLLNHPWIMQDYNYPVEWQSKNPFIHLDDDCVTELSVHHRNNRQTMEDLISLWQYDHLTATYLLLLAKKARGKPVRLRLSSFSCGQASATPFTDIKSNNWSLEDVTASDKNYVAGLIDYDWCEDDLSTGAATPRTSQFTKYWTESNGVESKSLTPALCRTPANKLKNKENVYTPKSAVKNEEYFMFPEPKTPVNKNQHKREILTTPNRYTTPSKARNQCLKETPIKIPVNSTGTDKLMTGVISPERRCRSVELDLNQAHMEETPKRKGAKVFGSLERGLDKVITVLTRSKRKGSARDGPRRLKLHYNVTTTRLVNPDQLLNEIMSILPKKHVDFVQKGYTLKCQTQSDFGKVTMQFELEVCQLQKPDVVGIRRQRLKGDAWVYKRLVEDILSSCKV

[7] = target: Casein kinase I isoform gamma-2 (Homo sapiens) (UniProt P78368); test: Inhibition of human CK1gamma2 (1 to 415 residues) assessed as remaining enzyme activity at 50 uM after 30 mins by 33P-ATP filter-binding assay
[8] = target: Dual specificity tyrosine-phosphorylation-regulated kinase 3 (Homo sapiens) (UniProt O43781); test: Inhibition of human DYRK3 (1 to 588 residues) assessed as remaining enzyme activity at 50 uM after 30 mins by 33P-ATP filter-binding assay
Sequence of Dual specificity tyrosine-phosphorylation-regulated kinase 3 (Homo sapiens) (O43781 whole entry, the tested form may be a part): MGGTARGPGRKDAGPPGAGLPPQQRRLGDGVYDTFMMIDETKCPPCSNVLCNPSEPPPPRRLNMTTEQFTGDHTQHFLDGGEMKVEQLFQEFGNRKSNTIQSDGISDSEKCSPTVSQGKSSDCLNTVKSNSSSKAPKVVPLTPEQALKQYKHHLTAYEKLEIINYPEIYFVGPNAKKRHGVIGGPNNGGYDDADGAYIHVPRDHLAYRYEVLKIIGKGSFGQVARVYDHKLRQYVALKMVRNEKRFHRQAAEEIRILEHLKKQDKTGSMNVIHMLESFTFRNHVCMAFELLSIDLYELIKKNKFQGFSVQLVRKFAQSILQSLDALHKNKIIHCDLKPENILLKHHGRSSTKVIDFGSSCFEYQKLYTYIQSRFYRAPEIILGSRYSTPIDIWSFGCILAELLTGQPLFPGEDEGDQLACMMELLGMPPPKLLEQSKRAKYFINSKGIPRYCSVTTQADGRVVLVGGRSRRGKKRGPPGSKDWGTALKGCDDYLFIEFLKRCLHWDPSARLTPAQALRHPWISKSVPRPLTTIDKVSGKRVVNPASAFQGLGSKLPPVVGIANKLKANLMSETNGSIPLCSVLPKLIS

[9] = target: Serine/threonine-protein kinase PAK 2 (Homo sapiens) (UniProt Q13177); test: Inhibition of human PAK2 assessed as remaining enzyme activity at 50 uM after 30 mins by 33P-ATP filter-binding assay
Sequence of Serine/threonine-protein kinase PAK 2 (Homo sapiens) (Q13177 whole entry, the tested form may be a part): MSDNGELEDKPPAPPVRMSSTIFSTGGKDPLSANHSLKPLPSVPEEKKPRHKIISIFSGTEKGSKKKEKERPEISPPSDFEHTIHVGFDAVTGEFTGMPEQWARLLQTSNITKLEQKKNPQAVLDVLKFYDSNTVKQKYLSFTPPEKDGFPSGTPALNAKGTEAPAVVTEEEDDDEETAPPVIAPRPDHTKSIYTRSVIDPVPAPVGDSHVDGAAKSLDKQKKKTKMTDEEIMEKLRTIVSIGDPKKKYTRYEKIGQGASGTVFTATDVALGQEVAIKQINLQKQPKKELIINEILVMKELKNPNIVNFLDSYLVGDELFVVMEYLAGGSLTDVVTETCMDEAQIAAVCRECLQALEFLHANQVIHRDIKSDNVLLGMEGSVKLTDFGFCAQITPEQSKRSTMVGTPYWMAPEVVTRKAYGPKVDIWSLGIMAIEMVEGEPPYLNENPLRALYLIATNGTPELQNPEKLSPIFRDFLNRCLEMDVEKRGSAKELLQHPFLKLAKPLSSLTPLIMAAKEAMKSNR

[10] = target: Serine/threonine-protein kinase 26 (Homo sapiens) (UniProt Q9P289); test: Inhibition of human MST4 (2 to 416 residues) assessed as remaining enzyme activity at 50 uM after 30 mins by 33P-ATP filter-binding assay
Sequence of Serine/threonine-protein kinase 26 (Homo sapiens) (Q9P289 2-416 limits assumed): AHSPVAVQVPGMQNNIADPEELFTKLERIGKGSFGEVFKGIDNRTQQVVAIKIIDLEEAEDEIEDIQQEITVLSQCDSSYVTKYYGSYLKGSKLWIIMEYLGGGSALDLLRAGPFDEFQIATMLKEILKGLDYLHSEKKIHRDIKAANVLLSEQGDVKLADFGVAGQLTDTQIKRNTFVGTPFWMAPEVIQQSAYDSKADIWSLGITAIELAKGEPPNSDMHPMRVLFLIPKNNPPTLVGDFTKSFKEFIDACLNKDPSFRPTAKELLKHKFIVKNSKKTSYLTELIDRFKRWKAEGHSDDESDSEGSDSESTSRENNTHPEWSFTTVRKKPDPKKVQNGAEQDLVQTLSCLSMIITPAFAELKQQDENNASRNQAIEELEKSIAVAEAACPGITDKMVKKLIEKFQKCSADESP

[11] = target: Serine/threonine-protein kinase TAO1 (Homo sapiens) (UniProt Q7L7X3); test: Inhibition of human TAO1 (1 to 356 residues) assessed as remaining enzyme activity at 50 uM after 30 mins by 33P-ATP filter-binding assay
[12] = target: Serine/threonine-protein kinase WNK1 (Homo sapiens) (UniProt Q9H4A3); test: Inhibition of human WNK1 (1 to 661 residues) assessed as remaining enzyme activity at 50 uM after 30 mins by 33P-ATP filter-binding assay
[13] = target: Tyrosine-protein kinase Lck (Homo sapiens) (UniProt P06239); test: Inhibition of human LCK (2 to 509 residues) assessed as remaining enzyme activity at 50 uM after 30 mins by 33P-ATP filter-binding assay
[14] = target: Tyrosine-protein kinase JAK2 (Homo sapiens) (UniProt O60674); test: Inhibition of human JAK2 assessed as remaining enzyme activity at 50 uM after 30 mins by 33P-ATP filter-binding assay
[15] = target: Ephrin type-A receptor 4 (Homo sapiens) (UniProt P54764); test: Inhibition of human EPHA4 (580 to 986 residues) assessed as remaining enzyme activity at 50 uM after 30 mins by 33P-ATP filter-binding assay
[16] = target: Ephrin type-B receptor 3 (Homo sapiens) (UniProt P54753); test: Inhibition of human EPHB3 (561 to 998 residues) assessed as remaining enzyme activity at 50 uM after 30 mins by 33P-ATP filter-binding assay
[17] = target: High affinity nerve growth factor receptor (Homo sapiens) (UniProt P04629); test: Inhibition of human TRKA (441 to 760 residues) assessed as remaining enzyme activity at 50 uM after 30 mins by 33P-ATP filter-binding assay
[18] = tested on: HL-60; test: Induction of apoptosis in human HL60 cells assessed as apoptotic cells at 1 uM (reference value: 1 %); type: functional
[19] = Cell cycle arrest in human HL60 cells assessed as accumulation at G1 phase at 10 uM (reference value: 59 %); type: functional, cell-based; details: HL-60
[20] = Cell cycle arrest in human HL60 cells assessed as accumulation at G2 phase at 10 uM (reference value: 5 %); type: functional, cell-based; details: HL-60
[21] = Cell cycle arrest in human HL60 cells assessed as accumulation at S phase at 10 uM (reference value: 36 %); type: functional, cell-based; details: HL-60
[22] = Partition coefficient, logP of the compound in water/PBS buffer at 25 degC by OECD guidelines based method; type: physicochemical; details: water/PBS buffer; read-out: logP
[23] = Stability in pH 1.2 buffer at 120 ug/ml after 8 hrs by RP-HPLC analysis; type: physicochemical; details: pH 1.2, 8 h
[24] = target: Aurora kinase A (Homo sapiens) (UniProt O14965); test: Inhibition of human Aurora A (2 to 403 residues) assessed as remaining enzyme activity at 50 uM after 30 mins by 33P-ATP filter-binding assay
Sequence of Aurora kinase A (Homo sapiens) (O14965 whole entry, the tested form may be a part): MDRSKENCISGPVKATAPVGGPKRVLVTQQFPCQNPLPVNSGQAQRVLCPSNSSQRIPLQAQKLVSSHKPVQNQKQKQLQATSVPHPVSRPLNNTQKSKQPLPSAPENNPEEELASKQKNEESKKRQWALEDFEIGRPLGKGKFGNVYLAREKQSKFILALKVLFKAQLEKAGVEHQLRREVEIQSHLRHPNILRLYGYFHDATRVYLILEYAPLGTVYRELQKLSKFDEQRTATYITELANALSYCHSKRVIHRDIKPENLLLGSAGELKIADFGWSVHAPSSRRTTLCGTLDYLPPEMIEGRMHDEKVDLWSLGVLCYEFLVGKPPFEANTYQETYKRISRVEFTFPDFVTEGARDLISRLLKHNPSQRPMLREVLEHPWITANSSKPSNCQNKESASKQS

[25] = target: Serine/threonine-protein kinase MARK2 (Homo sapiens) (UniProt Q7KZI7); test: Inhibition of human MARK2 (2 to 691 residues) assessed as remaining enzyme activity at 50 uM after 30 mins by 33P-ATP filter-binding assay
[26] = tested on: ASPC1; test: Cytotoxicity against human AsPC1 cells assessed as cell growth inhibition after 48 hrs by MTT assay; type: functional; details: ASPC1, 48 h
[27] = tested on: LNCaP; test: Cytotoxicity against human LNCAP cells assessed as cell growth inhibition after 48 hrs by MTT assay; type: functional
[28] = tested on: MDA-MB-468; test: Cytotoxicity against human MDA-MB-468 cells assessed as cell growth inhibition after 48 hrs by MTT assay; type: functional; details: MDA-MB-468, 48 h
[29] = target: Mitogen-activated protein kinase 8 (Homo sapiens) (UniProt P45983); test: Inhibition of human JNK1 (1 to 384 residues) assessed as remaining enzyme activity at 50 uM after 30 mins by 33P-ATP filter-binding assay
Sequence of Mitogen-activated protein kinase 8 (Homo sapiens) (P45983 whole entry, the tested form may be a part): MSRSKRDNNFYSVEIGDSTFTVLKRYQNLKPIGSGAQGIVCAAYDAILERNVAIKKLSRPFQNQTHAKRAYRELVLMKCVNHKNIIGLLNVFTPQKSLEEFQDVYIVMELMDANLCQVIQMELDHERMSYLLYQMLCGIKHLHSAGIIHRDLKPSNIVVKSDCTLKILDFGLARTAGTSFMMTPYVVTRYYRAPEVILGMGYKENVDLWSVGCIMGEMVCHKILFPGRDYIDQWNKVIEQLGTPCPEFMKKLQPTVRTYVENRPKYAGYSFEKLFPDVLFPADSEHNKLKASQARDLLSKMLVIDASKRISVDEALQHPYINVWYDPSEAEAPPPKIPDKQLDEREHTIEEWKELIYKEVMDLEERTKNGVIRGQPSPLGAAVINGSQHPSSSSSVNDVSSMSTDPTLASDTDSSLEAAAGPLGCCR

[30] = target: Mitogen-activated protein kinase 12 (Homo sapiens) (UniProt P53778); test: Inhibition of human p38gamma MAPK (1 to 367 residues) assessed as remaining enzyme activity at 50 uM after 30 mins by 33P-ATP filter-binding assay
Sequence of Mitogen-activated protein kinase 12 (Homo sapiens) (P53778 whole entry, the tested form may be a part): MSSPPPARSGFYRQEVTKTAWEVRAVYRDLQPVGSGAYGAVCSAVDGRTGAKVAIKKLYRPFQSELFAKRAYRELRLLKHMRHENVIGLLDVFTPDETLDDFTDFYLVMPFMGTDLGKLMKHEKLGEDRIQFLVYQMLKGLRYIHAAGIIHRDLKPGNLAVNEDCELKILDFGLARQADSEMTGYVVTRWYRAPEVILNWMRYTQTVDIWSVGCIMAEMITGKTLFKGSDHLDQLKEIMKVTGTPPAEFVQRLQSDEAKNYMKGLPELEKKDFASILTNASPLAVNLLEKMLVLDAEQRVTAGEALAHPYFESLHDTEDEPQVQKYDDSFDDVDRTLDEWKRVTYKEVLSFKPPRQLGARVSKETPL

[31] = target: Protein kinase C alpha type (Homo sapiens) (UniProt P17252); test: Inhibition of human PKCalpha (1 to 672 residues) assessed as remaining enzyme activity at 50 uM after 30 mins by 33P-ATP filter-binding assay
[32] = tested on: MAP3K9; test: Inhibition of human MLK1 (132 to 413 residues) assessed as remaining enzyme activity at 50 uM after 30 mins by 33P-ATP filter-binding assay

Compound: Cc1cc(=O)c2c(O)cc(O)c([C@H]3CCN(C)C[C@H]3O)c2o1 [ROHITUKINE]
- Activity [1]: 118%
- Activity [2]: 88%
- Activity [3]: 76%
- Activity [4]: 60%
- Activity [5]: 96%
- Activity [6]: 80%
- Activity [7]: 92%
- Activity [8]: 77%
- Activity [9]: 88%
- Activity [10]: 68%
- Activity [11]: 39%
- Activity [12]: 100%
- Activity [13]: 45%
- Activity [14]: 41%
- Activity [15]: 53%
- Activity [16]: 82%
- Activity [17]: 89%
- Activity [18]: 1%
- Activity [19]: 48%
- Activity [20]: 4%
- Activity [21]: 48%
- logP [22]: 0.73
- Stability [23]: Stable
- Activity [24]: 91%
- Activity [25]: 69%
- GI50 [26]: 21 µM
- GI50 [27]: 30 µM
- GI50 [28]: 17 µM
- Activity [29]: 96%
- Activity [30]: 27%
- Activity [31]: 78%
- Activity [32]: 47%
